Measured values reported in patent US10959433B2, “Use of cationic steroidal antimicrobials for sporicidal activity” (BRIGHAM YOUNG UNIVERSITY, priority 2017, dated 2021).

Columns and labels:
B. subtilis spores [1] = experiment: TEM of treated spores (morphology, membrane permeability); type: cell-based, Bacillus subtilis; settings: 50 μg/mL and 200 μg/mL, 1 hour, RT and 70° C. (FIG. 3, panels C-F)
Description: (§1) This example studied the ability of a CSA compound (e.g., CSA-13) to kill sporulated bacterial, namely Bacillus subtilis ATCC 6051 spores. To prepare Bacillus subtilis ATCC 6051 spores, bacteria were grown on LB (Luria-Bertani) agar plates without antibiotics at 37° C. for 72 h. Bacteria were harvested, re-suspended in ice-cold phosphate buffered saline (PBS) solution and purified by triple centrifugation (12 000×g, 10 min, 4° C.). The spore suspension was heat treated (75° C., 15 min) to remove remaining vegetative cells, cooled, stored in water at 4° C. and protected from light until analysis. […] Zhang, P., P. Setlow, and Y. Li, Characterization of single heat-activated Bacillus spores using laser tweezers Raman spectroscopy. Opt Express, 2009. 17(19): p. 16480-91. All spores used in this work were free of vegetative cells (>98%), as determined by staining cells using Schaeffer and Fulton Spore Stain Kit (Sigma-Aldrich, St Louis, Mo., USA). Additionally, to confirm the formation of spores during preparation, purified samples were investigated using transmission electron microscopy (TEM, Tecnai G2 X-TWIN, FEI, USA).
To visualize alterations in morphology and membrane permeability of treated spores, a suspension of spores (OD600˜0.5) in distilled water was treated with CSA-13 at concentrations of 50 μg/mL and 200 μg/mL and incubated for 1 hour at RT and 70° C. […]

[2] = system: vegetative form of B. subtilis; experiment: Viability (CFU) assay, vegetative form; type: cell-based, Bacillus subtilis ATCC 6051; settings: RT, incubation time 240 min
Description: (§2) A viability assay of bacterial spores in the presence of a CSA compound was performed according to the protocol presented by Ghosh and Setlow. Ghosh, S. and P. Setlow, Isolation and characterization of superdormant spores of Bacillus species. J Bacteriol, 2009. 191(6): p. 1787-97. Spore suspensions in PBS were brought to […] and incubated with various concentrations of CSA-13. To evaluate the effect of treatment time on the killing properties of the antibiotic, incubation was performed for 15, 30, 60, 120 and 240 min, respectively. To investigate the effect of temperature on sporicidal properties, incubation at room temperature (RT) and at 70° C. was performed. After incubation, the plates were transferred to ice and suspensions were diluted 10- to 1000-fold in PBS. Then, 10 μL aliquots were spotted on LB agar plates for overnight culture at 37° C. and CFUs were determined. Cell survival, after exposure to the tested agent, was expressed as percent of control.
FIG. 4 includes graphs showing decreased survival of CSA-13-treated B. subtilis spores. FIG. 4, panels A-C show decline in the survival of B. subtilis culture after incubation with various concentrations of CSA-13. FIG. 4, panels D-F show Level of metabolic activity observed in ceragenin (CSA)-treated spore samples exposed to appropriate environmental conditions when compared to untreated control. […]

B. subtilis spores [3] = experiment: Spore germination by optical density (OD600); type: cell-based, Bacillus subtilis; settings: 10 to 100 μg/mL, 1 h at RT in PBS, then LB broth, OD600 for 60 min (FIG. 5, panel A)
Description: To further assess germination processes in antibiotic-treated samples, a spectrophotometric method was employed. Isolated spores were incubated at RT for 1 h in PBS with concentrations of CSA-13 ranging from 10 to 100 μg/mL. Then 100 μL of LB broth was added, and optical densities at 600 nm (OD600) were monitored, using a microplate reader (Synergy H1, BioTek, VT, USA), for 60 min. FIG. 5 includes graphs showing inhibitory effect of CSA-13 on B. subtilis spore germination assessed by the measurement of optical density for spore suspension with increasing concentrations of the antibiotic (10 μg/mL—white squares; 20 μg/mL—white diamonds; 50 μg/mL—black triangles; 100 μg/mL—black diamonds), when compared with control (CT—grey circles) (panel A). Release of rhodamine 6G from external layers of B. subtilis spores after treatment with 20 μg/ml of CSA-13 (black square) and vancomycin (VAN; grey square) (panel B).

B. subtilis spores [4] = experiment: Viability (CFU) assay of bacterial spores; type: cell-based, Bacillus subtilis ATCC 6051
Description: as §1, §2
FIG. 4 includes graphs showing decreased survival of CSA-13-treated B. subtilis spores. FIG. 4, panels A-C show decline in the survival of B. subtilis culture after incubation with various concentrations of CSA-13. FIG. 4, panels D-F show Level of metabolic activity observed in ceragenin (CSA)-treated spore samples exposed to appropriate environmental conditions when compared to untreated control. Samples were incubated at RT (panels A, D for vegetative form and panels B, E for spore form, respectively) and at 70° C. (panels C, F) for 15 (white squares), 30 (grey circles), 60 (black circles), 120 (white triangles) and 240 (grey diamonds) minutes. […]

[5] = system: external layers of B. subtilis spores; experiment: Release of rhodamine 6G from the surface of spores; type: cell-based, Bacillus subtilis
Description: The release of rhodamine 6G absorbed on the surface of Bacillus spores was evaluated using the Maesaki method (Maesaki, S., et al., Rhodamine 6G efflux for the detection of CDR1-overexpressing azole-resistant Candida albicans strains. J Antimicrob Chemother, 1999. 44(1): p. 27-31) with minor modifications. To stain cells with rhodamine 6G, the dye was added to a final concentration of 10 μM for 10 min. Non-absorbed dye was removed by centrifugation for 2 min at 10 000×g. Next, stained cells were washed and CSA-13 at 20 μg/mL was added. After incubation for 10, 30, 60 and 120 min, supernatant was collected by centrifugation and absorption at 527 nm was measured. The total concentration of rhodamine 6G released from the surface of spores was calculated using a standard concentration curve. The level of antibiotic-induced release was presented as the difference between the concentration of rhodamine 6G released from treated spores and control samples.

B. subtilis spores [6] = experiment: Confocal Raman spectroscopy of single spores (CaDPA content); type: cell-based, Bacillus subtilis; settings: 50 μg/mL and 200 μg/mL
Description: For Raman spectroscopy analyses, spores of B. subtilis were suspended in 100 μL of distilled water and treated with CSA-13 (50 μg/mL and 200 μg/mL) for 1 hour at RT and 70° C. Samples were transferred to polished calcium fluoride (CaF2) optical windows (Crystran, United Kingdom) and dried at 60° C. Raman spectra were recorded using a Renishaw InVia Raman spectrometer equipped with an optical confocal microscope, an air-cooled laser emitting at 532 nm, and an CCD detector thermoelectrically cooled to −70° C. A dry Leica N PLAN EPI (100×, NA 0.85) objective was used. The power of the laser at the sample position was ca. 1.5 mW. A sum of 20 scans with integration time of 20 seconds and a resolution of 0.5 cm^−1 was collected. The spectrometer was calibrated using the Raman scattering line generated by an internal silicon plate. A laser spot (diameter of ca. 760 nm) was focused on a single spore and then the measurement was performed. All spectra were smoothed and baseline corrected. Results from one representative experiment are provided.
FIGS. 7 and 8 show Raman spectra collected from B. subtilis spores incubated at RT and at 70° C., respectively, with corresponding confocal microscopy images. Panels A1 and A2—control sample, panels B1 and B2—50 μg/mL of CSA-13, panels C1 and C2—200 μg/mL of CSA-13. Asterisks denote CaDPA bands well separated from bands of spore biocomponents. […]

[7] = system: membrane of vegetative and spore form of B. subtilis; experiment: Affinity of FITC-labeled CSA-13 to cell membranes (fluorimetric); type: binding, Bacillus subtilis; settings: FITC-labeled CSA-13, 20 μg/mL
Description: To assess the affinity/binding of CSA-13 for the outer bacterial membrane, CSA-13 was labeled with fluorescein isothiocyanate (FITC) and added to the suspensions of vegetative cell and spores, to a final concentration of 20 μg/mL. […] To evaluate whether affinity of CSA-13 is influenced by the surface electrical properties of cells, zeta potentials of vegetative bacteria and spore suspensions were assessed using Zetasizer Nano ZS (Malvern Instruments, United Kingdom). Bacterial and spore cultures were brought to OD600˜0.1 in PBS buffer (pH=7). To evaluate the effect of the ceragenin on zeta potential value, CSA-13 was added at the concentration of 100 μg/mL to the spore suspension, incubated for 15 minutes and transferred to a cuvette. Measurements were conducted at 25° C.

B. subtilis spores [8] = experiment: MTT assay of metabolic activity, spores; type: cell-based, Bacillus subtilis; settings: LB broth 37° C. 8 h after treatment at RT or 70° C. (FIG. 4, panels E, F)
Description: As an additional confirmation of results, the presence of a metabolically active fraction of cells was investigated using MTT assay. After incubation of spores with various concentrations of CSA-13 in a non-growing medium (PBS), 20 μL of MTT solution (thiazolyl blue tetrazolium bromide, Sigma-Aldrich, St Louis, Mo., USA, 5 mg/mL) and 100 μL of LB medium broth were added. Incubation at 37° C. was continued for 8 h. Medium was removed, and 100 μL of dimethyl sulfoxide solution (DMSO) was added to dissolve the MTT precipitate. Cells were allowed to stand at room temperature (RT) for 10 min with shaking. Absorbance values were detected at a wavelength of 570 nm using a microplate spectrophotometer. Absorbance values obtained in control spores cultures (without a tested agent) were taken as 100%. As positive controls, 1 M HCl (for spore treatment at RT) and 70% ethanol (for spore treatment at 70° C.) were employed. The average of all the experiments was presented in comparison to the level of metabolic activity detected in non-treated B. subtilis suspension. […]
The results of viability testing largely correlate with data obtained in the MTT assay. […] The incubation of non-treated spores in LB broth at 37° C. results in reactivation of metabolic activity confirmed by increasing formazan reduction and subsequent rise in an absorbance value. […]

[9] = system: vegetative cells of B. subtilis; experiment: MTT assay of metabolic activity, vegetative cells; type: cell-based, Bacillus subtilis; settings: RT (FIG. 4, panel D)
Description: As an additional confirmation of results, the presence of a metabolically active fraction of cells was investigated using MTT assay. After incubation of spores with various concentrations of CSA-13 in a non-growing medium (PBS), 20 μL of MTT solution (thiazolyl blue tetrazolium bromide, Sigma-Aldrich, St Louis, Mo., USA, 5 mg/mL) and 100 μL of LB medium broth were added. Incubation at 37° C. was continued for 8 h. Medium was removed, and 100 μL of dimethyl sulfoxide solution (DMSO) was added to dissolve the MTT precipitate. Cells were allowed to stand at room temperature (RT) for 10 min with shaking. Absorbance values were detected at a wavelength of 570 nm using a microplate spectrophotometer. Absorbance values obtained in control spores cultures (without a tested agent) were taken as 100%. As positive controls, 1 M HCl (for spore treatment at RT) and 70% ethanol (for spore treatment at 70° C.) were employed. The average of all the experiments was presented in comparison to the level of metabolic activity detected in non-treated B. subtilis suspension. Incubation of both vegetative cells and spores of B. subtilis was performed for 15, 30, 60, 120 and 240 min.

CCCCCCCCNCCC[C@@H](C)[C@H]1CC[C@H]2[C@@H]3[C@H](OCCCN)C[C@@H]4C[C@H](OCCCN)CC[C@]4(C)[C@H]3C[C@H](OCCCN)[C@]12C [CSA-13]
change of spore structure in TEM micrographs (B. subtilis spores [1]): disruption of spore membrane architecture | concentration at which all vegetative cells were killed [2]: 15 µg/mL | effect on spore germination (OD600) (B. subtilis spores [3]): strong interference in the germination | effect of elevated temperature on sporicidal activity (B. subtilis spores [4]; 70° C. versus room temperature): elevated temperature significantly intensifies the activity | concentration killing bacterial spores (B. subtilis spores [4]; 70° C., incubation 120 and 240 minutes): 5 µg/mL | concentration sufficient to inhibit the growth of spores (B. subtilis spores [4]; 70° C., incubation 15 min (FIG. 4, panel C)): 20 µg/mL | concentration giving total inhibition of spore growth potential (B. subtilis spores [4]; RT, regardless of incubation time (15-240 min) (FIG. 4, panel B)): 100 µg/mL | rhodamine 6G release compared with vancomycin ([5]; 20 μg/mL of each): significantly higher than that of vancomycin | release of rhodamine 6G from spores ([5]; 20 μg/mL, 10-120 min (FIG. 5, panel B)): resulted in the release of dye | percentage of CaDPA negative spores, 70° C. versus room temperature (B. subtilis spores [6]; 1 hour (FIG. 8)): greater compared to sample treated at room temperature | number of CaDPA positive spores after treatment (B. subtilis spores [6]; 1 hour, versus untreated): significant reduction of the number of CaDPA positive cells | affinity for the external layers of spores [7]: high affinity | affinity for spores versus vegetative form ([7]; recorded 15 min (FIG. 6, panel A)): greater affinity for the spores than for the vegetative form of bacteria | metabolic activity of treated spores after exposure to favorable conditions (B. subtilis spores [8]): only a small fraction of spores was able to resume proper metabolic activity | concentration at which vegetative cells showed no detectable metabolism [9]: 20 µg/mL
